Experimental data taken from patent US20040126325A1, “Medicinal aerosol solution formulation products with improved chemical stability” (priority 2002, published 2004).

How the values were obtained:
[1] = Stability of Budesonide solution formulations: determination of degradation products (related substances); format: physicochemical
Procedure: Two cans of anodized aluminum prepared as per example 2 were submitted to the determination of degradation products of the active ingredient.
It was noticed in this way that after a lag time of 6 months at 40° C. the degradation rate increases with the same pattern seen in the first example. […] An explanation of the process is that peroxides may leach into the solution after a while, thus starting a radicalic degradation of Budesonide.

[2] = Stability of Budesonide solution formulations: recovery of budesonide after storage; format: physicochemical
Procedure: Cans of Budesonide in solution according to the following formulation were manufactured: […]
Budesonide 400 mg (200 mcg/shot)
Anodized and lacquered cans and non ethanol extracted valves were utilized. The cans were put on stability at 50° C. (inverted)
Cans with the same formulation were prepared and in this case ethanol extracted valves were utilized.

Question: With `CCCC1O[C@@H]2C[C@H]3[C@@H]4CCC5=CC(=O)C=C[C@]5(C)[C@H]4[C@@H](O)C[C@]3(C)[C@]2(C(=O)CO)O1` (stereo partly shown) [Budesonide] as the molecule, how does the “Lag time after which the degradation rate increases” value ([1]; 40° C., anodized aluminum cut edge cans, ethanol extracted valves, inverted, does not occur if stored upright) read?
Answer: 6 months

Question: What about the “Stability of the solution” value ([1]; finishing of the cans changed from cut edge to rolled neck) of the same molecule?
Answer: greatly increased

Question: What about the Degradation observed ([2]; anodized and lacquered cans, non ethanol extracted valves, 50° C. inverted) of the same molecule?
Answer: high degree of degradation

Question: What about the “Stability of the solution formulation” value ([2]; ethanol extracted valves, compared with non extracted valves (Example 1)) of the same molecule?
Answer: much higher stability
